Converted amounts (≈) assume the structure as drawn.
Tests used:
[1] = target: T1, C-C chemokine receptor type 2 (Homo sapiens, UniProt P41597); experiment: Displacement of 125I-MCP1 from human CCR2 receptor expressed in human THP-1 cell membrane by SPA assay; type: cell membranes
[2] = target: T1, C-C chemokine receptor type 2; experiment: Antagonist activity at human CCR2 receptor expressed in human THP-1 cells assessed as inhibition of MCP1-induced Ca2+ flux by FLIPR analysis; type: functional, cell-based
[3] = target: Voltage-gated inwardly rectifying potassium channel KCNH2 (Homo sapiens, UniProt Q12809)
[4] = Aqueous solubility at pH 7. 4; type: physicochemical; settings: buffer
[5] = Fraction unbound in rat plasma; type: ADME, cell-free
[6] = Fraction unbound in human plasma; type: ADME, cell-free
[7] = Intrinsic clearance in human microsomes assessed per mg of protein; type: ADME, Microsome
[8] = Clearance in iv dosed rat; type: ADME, organism-based; settings: in vivo
[9] = Half life in rat; type: ADME, organism-based; settings: in vivo
[10] = Volume of distribution in rat; type: ADME, organism-based; settings: in vivo
[11] = Oral bioavailability in rat; type: ADME, organism-based; settings: in vivo
Cytochrome P450 3A4 = Cytochrome P450 3A4 (Homo sapiens, UniProt P08684); experiment: Inhibition of CYP3A4; type: ADME
Cytochrome P450 2D6 = Cytochrome P450 2D6 (Homo sapiens, UniProt P10635); experiment: Inhibition of CYP2D6; type: ADME
[12] = Intrinsic clearance in rat hepatocytes assessed per 10^6 cells; type: ADME, cell-based, Hepatocyte; settings: read-out: CLH
[13] = target: T1, C-C chemokine receptor type 2; experiment: Displacement of 125I-MCP1 from human CCR2 receptor expressed in human HEK cell membrane; type: cell membranes, HEK293

T1 sequence (P41597 whole entry): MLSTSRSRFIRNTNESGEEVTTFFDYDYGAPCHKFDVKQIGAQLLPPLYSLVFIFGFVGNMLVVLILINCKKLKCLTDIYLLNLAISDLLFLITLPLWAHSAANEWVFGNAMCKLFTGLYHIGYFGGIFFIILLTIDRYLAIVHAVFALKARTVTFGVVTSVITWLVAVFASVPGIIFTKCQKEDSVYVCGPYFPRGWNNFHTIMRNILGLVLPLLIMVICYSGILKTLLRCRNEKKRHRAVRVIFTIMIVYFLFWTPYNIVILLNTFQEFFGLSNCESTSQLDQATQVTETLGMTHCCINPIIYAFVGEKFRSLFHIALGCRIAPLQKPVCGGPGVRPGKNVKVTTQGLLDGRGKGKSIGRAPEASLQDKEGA
Sequence of Voltage-gated inwardly rectifying potassium channel KCNH2 (Q12809 whole entry): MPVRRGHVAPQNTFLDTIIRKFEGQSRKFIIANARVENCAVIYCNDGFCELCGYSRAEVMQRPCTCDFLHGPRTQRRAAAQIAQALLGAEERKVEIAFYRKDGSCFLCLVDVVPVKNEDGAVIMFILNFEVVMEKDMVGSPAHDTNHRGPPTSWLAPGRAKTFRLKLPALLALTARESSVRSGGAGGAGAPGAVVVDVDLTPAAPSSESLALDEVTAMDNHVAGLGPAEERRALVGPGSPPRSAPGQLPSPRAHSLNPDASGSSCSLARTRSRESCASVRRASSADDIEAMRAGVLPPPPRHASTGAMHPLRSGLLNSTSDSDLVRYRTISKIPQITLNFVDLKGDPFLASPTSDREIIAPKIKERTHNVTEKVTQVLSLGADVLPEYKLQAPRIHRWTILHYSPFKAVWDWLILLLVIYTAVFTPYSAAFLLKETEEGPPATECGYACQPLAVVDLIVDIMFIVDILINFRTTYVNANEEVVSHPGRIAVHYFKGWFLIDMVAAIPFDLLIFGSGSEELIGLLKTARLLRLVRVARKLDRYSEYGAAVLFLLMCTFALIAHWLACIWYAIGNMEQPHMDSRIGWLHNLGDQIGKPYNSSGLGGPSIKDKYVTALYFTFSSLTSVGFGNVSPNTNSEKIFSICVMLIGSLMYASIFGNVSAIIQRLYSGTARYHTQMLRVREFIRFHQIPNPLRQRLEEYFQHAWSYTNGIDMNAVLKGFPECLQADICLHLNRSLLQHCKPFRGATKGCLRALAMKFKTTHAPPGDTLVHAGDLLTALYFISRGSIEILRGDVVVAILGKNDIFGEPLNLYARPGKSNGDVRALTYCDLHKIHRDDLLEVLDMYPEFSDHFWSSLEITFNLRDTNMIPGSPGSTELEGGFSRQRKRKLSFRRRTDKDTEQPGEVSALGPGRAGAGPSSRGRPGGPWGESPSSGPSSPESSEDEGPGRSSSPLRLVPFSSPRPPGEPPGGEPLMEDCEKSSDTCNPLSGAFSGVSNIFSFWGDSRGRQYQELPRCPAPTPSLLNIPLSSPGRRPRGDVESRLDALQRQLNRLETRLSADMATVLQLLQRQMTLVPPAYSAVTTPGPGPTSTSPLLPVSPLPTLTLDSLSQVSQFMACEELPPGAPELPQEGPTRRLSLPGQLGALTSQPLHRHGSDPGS
Sequence of Cytochrome P450 3A4 (P08684 whole entry): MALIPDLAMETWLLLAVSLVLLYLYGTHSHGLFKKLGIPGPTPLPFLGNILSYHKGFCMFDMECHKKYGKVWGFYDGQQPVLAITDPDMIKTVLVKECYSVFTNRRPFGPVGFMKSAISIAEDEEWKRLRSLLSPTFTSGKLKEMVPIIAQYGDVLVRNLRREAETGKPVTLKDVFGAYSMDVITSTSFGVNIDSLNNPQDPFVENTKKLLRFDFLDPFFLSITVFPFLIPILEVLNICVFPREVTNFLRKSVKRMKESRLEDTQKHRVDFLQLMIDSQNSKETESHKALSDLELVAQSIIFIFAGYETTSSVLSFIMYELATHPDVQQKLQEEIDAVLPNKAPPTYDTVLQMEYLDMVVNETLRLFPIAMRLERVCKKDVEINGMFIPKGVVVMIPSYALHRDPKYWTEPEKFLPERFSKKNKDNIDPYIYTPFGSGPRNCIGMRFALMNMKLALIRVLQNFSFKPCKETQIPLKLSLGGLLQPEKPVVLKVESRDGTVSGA
Sequence of Cytochrome P450 2D6 (P10635 whole entry): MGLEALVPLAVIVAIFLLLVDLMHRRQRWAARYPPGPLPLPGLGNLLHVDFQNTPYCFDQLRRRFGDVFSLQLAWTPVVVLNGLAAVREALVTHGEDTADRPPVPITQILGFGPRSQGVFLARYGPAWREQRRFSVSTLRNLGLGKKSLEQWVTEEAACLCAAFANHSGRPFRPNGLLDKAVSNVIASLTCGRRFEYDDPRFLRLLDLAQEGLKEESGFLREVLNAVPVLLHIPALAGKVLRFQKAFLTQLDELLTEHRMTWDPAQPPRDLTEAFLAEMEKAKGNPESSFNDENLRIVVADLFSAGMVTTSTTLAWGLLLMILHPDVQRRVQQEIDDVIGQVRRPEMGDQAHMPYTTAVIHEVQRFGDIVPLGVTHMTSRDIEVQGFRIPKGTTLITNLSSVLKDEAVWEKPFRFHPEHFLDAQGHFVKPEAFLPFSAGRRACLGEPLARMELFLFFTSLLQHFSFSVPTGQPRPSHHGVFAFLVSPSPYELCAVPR

`CC(C)N1CCN[C@@H](CN2CCN(C(=O)Nc3ccc(Cl)c(Cl)c3)CC2)C1` gave an IC50 [1] of 26 nM and an IC50 [2] of 32 nM.

`O=C(Nc1ccc(Cl)c(Cl)c1)N1CCN(C[C@@H]2CCCN(CC3CC3)C2)CC1` gave an IC50 [1] of 52 nM and an IC50 [2] of 161 nM.

Work on `Cc1ccc(NC(=O)N2CCN(C[C@@H]3CCCN(C4CC4)C3)CC2)cc1Cl` yielded an IC50 [1] of 27 nM, an IC50 [2] of 184 nM and an IC50 [3] of 7100 nM.

`O=C(Nc1cccc(Cl)c1)N1CCN(C[C@@H]2CCCN(C3CC3)C2)CC1` gave an IC50 [1] of 171 nM and an IC50 [2] of 202 nM.

`CCN1CCOC(C(=O)N2CCN(C(=O)Nc3ccc(Cl)c(Cl)c3)CC2)C1` (racemic) gave an IC50 [1] of 2570 nM, an IC50 [2] greater than 1000 nM and an IC50 [3] of 5000 nM.

Work on `O=C(Nc1ccccc1Cl)N1CCN(C[C@@H]2CCCN(C3CC3)C2)CC1` yielded an IC50 [1] greater than 10000 nM.

Work on `O=C(Nc1ccc(F)c(Cl)c1)N1CCN(C[C@@H]2CCCN(C3CC3)C2)CC1` yielded an IC50 [1] of 50 nM, an IC50 [2] of 75 nM and an IC50 [3] of 14000 nM.

With `O=C(Nc1ccc(Cl)c(Cl)c1)N1CCN(C[C@@H]2CCCN(C3CC3)C2)CC1` the IC50 [1] was 10 nM, the IC50 [2] was 64 nM and the solubility [4] was 290 µM (≈ 119 µg/mL). For the same molecule, the fraction unbound [5] was 0.05, the fraction unbound [6] was 0.05 and the microsomal CLint [7] was 5 µL/min/mg. For the same molecule, the clearance [8] was 24 mL/min/kg, the half-life [9] was 5 h and the Vd [10] was 8 L/kg. The bioavailability [11] was 11%, the IC50 (Cytochrome P450 3A4) was 1600 nM and the IC50 (Cytochrome P450 2D6) was 3100 nM. The hepatocyte CLint [12] was 11 µL/min/1e6 cells.

`CCN1CCC[C@@H](CN2CCN(C(=O)Nc3ccc(Cl)c(Cl)c3)CC2)C1` showed an IC50 [1] of 37 nM, an IC50 [2] of 174 nM and an IC50 [3] of 2100 nM.

`O=C(Nc1ccc(Cl)c(Cl)c1)N1CCN(C[C@H]2CN(C3CC3)CCO2)CC1` gave an IC50 [1] of 267 nM and an IC50 [2] of 262 nM.

`O=C(Nc1ccc(C(F)(F)F)c(Cl)c1)N1CCN(C[C@@H]2CCCN(C3CC3)C2)CC1` showed an IC50 [1] of 17 nM and an IC50 [2] of 31 nM.

`CN1CCCC(CN2CCN(C(=O)Nc3ccc(Cl)c(Cl)c3)CC2)C1` (centres undefined) showed a Ki [13] of 400 nM, an IC50 [1] of 170 nM and an IC50 [2] of 965 nM. The IC50 [3] was 1600 nM.

For `N#Cc1ccc(NC(=O)N2CCN(C[C@@H]3CCCN(C4CC4)C3)CC2)cc1`, the IC50 [1] was 449 nM and the IC50 [2] was 4360 nM.

Molecule `O=C(Nc1ccc(C(F)(F)F)cc1)N1CCN(C[C@@H]2CCCN(C3CC3)C2)CC1` has an IC50 [1] of 68 nM and an IC50 [2] of 593 nM.

Molecule `O=C(Nc1ccc(Cl)c(Cl)c1)N1CCN(C(=O)[C@H]2CN(C3CC3)CCN2)CC1` has an IC50 [1] of 32 nM, an IC50 [2] of 38 nM and an IC50 [3] of 19000 nM.

`CCN1CCN[C@@H](C(=O)N2CCN(C(=O)Nc3ccc(Cl)c(Cl)c3)CC2)C1` showed an IC50 [1] of 21 nM and an IC50 [2] of 55 nM.

In the case of `O=C(Nc1ccc(Cl)c(Cl)c1)N1CCN(C[C@@H]2CCCN(Cc3ccccc3)C2)CC1`, the IC50 [1] is reported as 99 nM and the IC50 [2] is reported as 244 nM.

`CCN1CCC[C@H](CN2CCN(C(=O)Nc3ccc(Cl)c(Cl)c3)CC2)C1` showed an IC50 [1] of 1180 nM.

`O=C(Nc1ccc(Cl)c(Cl)c1)N1CCN(CC2CCCNC2)CC1` (racemic) showed an IC50 [1] of 780 nM and an IC50 [2] of 950 nM.
